{"source": "patent US20200190101A1", "about": "“Composition Containing Novel Glutamic Acid Derivative And Block Copolymer, And Use Thereof” (Nippon Kayaku Kabushiki Kaisha, priority 2015, published 2020)", "key": {"[1]": {"test_system": "human ovarian cancer SHIN-3 tumors", "experiment": "Test on antitumor effect of Synthesis Example 1, SHIN-3 tumors", "type": "in vivo", "conditions": "three times at an interval of 7 days", "experimental": "By an operation similar to that of Test Example 12, human ovarian cancer SHIN-3 tumors were subcutaneously transplanted into SCID mice, and tumor engraftment was confirmed.\nAfter the administration, the major axis (L) and the minor axis (W) of a tumor were measured using calipers at an interval of 2 to 3 days, the tumor volume was calculated by the formula: (L×W^2)/2, and the tumor volume change rate from the administration initiation day was determined."}, "[2]": {"test_system": "OS-RC-2 cells having high GGT activity", "experiment": "cells", "type": "cell-based, human", "conditions": "Homo sapiens; OS-RC-2 cells, 10 μM, 6 hours exposure then 3 days incubation; read-out: Cell proliferation inhibitory activity", "experimental": "(§1) After the cells were incubated for 6 hours, the interior of the wells was washed, and after the cells were further incubated for 3 days, the cells were immobilized with methanol and stained using Methylene Blue dye. After staining, the dye was extracted with a 0.3% aqueous solution of hydrochloric acid was extracted, and the light absorbance at 660 nm was measured. For the light absorbance thus obtained, the cell proliferation suppressive activity was evaluated based on the reduction ratio for the light absorbance measured from cells to which the compound was not added.\n(§2) By a similar operation, the cell proliferation suppressive activity was evaluated from the light absorbance, using doxorubicin that was not converted to a glutamic acid derivative. The results are shown in FIG. 1 (OS-RC-2 cells having high GGT activity) and FIG. 2 (SK-OV-3 cells having low GGT activity).\n(§3) The cell proliferation inhibitory activity of the EHC-bonded glutamic acid derivative according to Synthesis Example 6 was evaluated using OS-RC-2 cells (RIKEN BioResource Center), which are known to have high GGT activity, and SK-OV-3 cells (American Type Culture Collection), which are known to have low GGT activity.\n(§4) On a 96-well plate, OS-RC-2 cells having high GGT activity and SK-OV-3 cells having low GGT activity were each inoculated in an amount of 4,000 cells/well and were incubated for one day at 37° C. and 5% CO2, and then the EHC prodrug according to Synthesis Example 6 was added to the cells at a final concentration of 0.0001 to 1 μM. After the cells were incubated for 6 hours, the interior of the wells was washed, and the cells were further incubated for 3 days. After the incubation, the cells were immobilized with methanol and were stained using Methylene Blue dye. After staining, the dye was extracted with a 0.3% aqueous solution of hydrochloric acid, and the light absorbance at 660 nm was measured. The cell proliferation suppressive activity was evaluated based on the reduction ratio for the light absorbance thus obtained, with respect to the light absorbance measured from cells to which the compound was not added.\n(§5) By a similar operation, EHC, which was an active ingredient of Synthesis Example 6, was used without modification, and the cell proliferation suppressive activity was evaluated from the light absorbance."}, "[3]": {"test_system": "γ-glutamyl transpeptidase (GGT)", "experiment": "γ-Glutamyl transpeptidase (GGT) enzyme recognition test", "type": "biochemical", "conditions": "2 mM PBS solution + 2 U/mL GGT solution, 37° C.; for Residual ratio of unchanged drug: HPLC", "experimental": "To 0.150 mL of this doxorubicin-bonded glutamic acid derivative (prodrug) PBS solution, 0.150 mL of a 2 U/mL GGT solution obtained by dissolving GGT (0.22 mg, 8 U/mg) (Sigma-Aldrich Company) in PBS (0.880 mL) was added, and the mixture was allowed to react at 37° C.\nThe reaction liquid was analyzed by HPLC, and thus the residual ratio of the doxorubicin-bonded glutamic acid derivative (prodrug) and the production ratio of doxorubicin were determined.\nTo 0.100 mL of the doxorubicin-bonded glutamic acid derivative PBS solution, 0.100 mL of a 2 U/mL GGT solution obtained by dissolving GGT (0.38 mg, 8 U/mg) (Sigma-Aldrich Company) in PBS (1.520 mL) was added, and the mixture was allowed to react at 37° C. […]"}, "[4]": {"experiment": "Test on pharmacokinetics of Example 1 (blood plasma)", "type": "in vivo, mice", "conditions": "mouse, iv, 10 mg/kg in terms of DXR i.v., read-out: AUC0-6 hr. Unchanged drug (DXR prodrug)", "experimental": "At time points of 5 minutes, 1 hour, 3 hours, and 6 hours after administration, blood plasma was collected under ether anesthesia."}, "[5]": {"experiment": "Phosphate buffered physiological saline (PBS) solution stability test", "type": "physicochemical", "conditions": "PBS, 37° C., after 6.5 hours, HPLC", "experimental": "0.148 mL of the doxorubicin-bonded glutamic acid derivative PBS solution was dissolved in 0.148 mL of a PBS solution, and the solution was allowed to react at 37° C.\nPBS (0.100 mL) was added to the EHC-bonded glutamic acid derivative solution (0.100 mL), and the mixture was allowed to react at 37° C. The reaction liquid was analyzed by HPLC, and thereby the residual ratio of the EHC-bonded glutamic acid derivative was determined.\nPBS (0.117 mL) was added to the camptothecin-bonded glutamic acid derivative solution (0.117 mL), and the mixture was allowed to react at 37° C. The reaction liquid was analyzed by HPLC, and thereby the residual ratio of the glutamic acid derivative was determined.\nThe reaction liquid was analyzed by HPLC, and thereby the residual ratio of the EHC-bonded glutamic acid derivative was determined."}, "[6]": {"test_system": "OS-RC-2 cells having high GGT activity", "type": "cell-based, human", "conditions": "GGsTop 10 μM, compound 0.039 to 10 μM", "experimental": "OS-RC-2 cells were inoculated by a method similar to that of Test Example 3. […] After the cells were incubated for 6 hours, the interior of the wells was washed, and after the cells were further incubated for 3 days, the cell proliferation suppressive activity was evaluated by a method similar to that of Test Example 3.\nBy a similar operation, the cell proliferation suppressive activity was evaluated using doxorubicin that was not glutamic acid-derivatized, from the light absorbance of the compound.\nThe GGT activity dependency of the cell proliferation inhibitory activity of the EHC-bonded glutamic acid derivative according to Synthesis Example 6 was evaluated using OS-RC-2 cells having high GGT activity.\nOS-RC-2 cells were inoculated by a method similar to that of Test Example 10. After the cells were incubated for one day, GGsTop (Wako Pure Chemical Industries, Ltd.), which is a GGT inhibitor, was added to the cells at a final concentration of 10 μM, and the cells were incubated for one hour. Subsequently, the EHC-bonded glutamic acid derivative according to Synthesis Example 6 was added to the cells at a final concentration of 0.0001 to 1 μM. After the cells were incubated for 6 hours, the interior of the wells was washed, and after the cells were incubated for 3 days, the cell proliferation suppressive activity was evaluated by a method similar to that of Test Example 10.\nBy a similar operation, the cell proliferation suppressive activity was evaluated using EHC, which is the active ingredient of Synthesis Example 6, from the light absorbance of the compound."}, "[7]": {"test_system": "SK-OV-3 cells having low GGT activity", "experiment": "cells", "type": "cell-based", "conditions": "Homo sapiens; SK-OV-3 cells, 10 μM, 6 hours exposure then 3 days incubation; read-out: Cell proliferation inhibitory activity", "experimental": "as §1, §2, §3, §4, §5"}}}
{"smiles": "COc1cccc2c1C(=O)c1c(O)c3c(c(O)c1C2=O)C[C@@](O)(C(=O)CO)CC3OC1CC(NC(=O)OCc2ccc(NC(=O)CCC(N)C(=O)O)cc2)C(O)C(C)O1", "note": "(stereo partly drawn) [Synthesis Example 1, (((4-((S)-4-amino-4-carboxybutanamide)benzyl)oxy)carbonyl)doxorubicin]", "values": [{"measurement": "Antitumor effect (relative tumor volume) versus control drug", "setting": "[1]; 20 mg/kg-administered group, i.v.", "result": "antitumor effect that was equivalent to that of the control drug"}, {"measurement": "Antitumor effect (relative tumor volume)", "setting": "[1]; 5 or 20 mg/kg i.v.", "result": "dose-dependent antitumor effect"}, {"measurement": "inhibition at 10 µM", "setting": "[2]", "result": 76, "unit": "%"}, {"measurement": "Doxorubicin production rate", "setting": "[3]; reaction time 0 hr", "result": 0, "unit": "%"}, {"measurement": "Residual ratio of unchanged drug", "setting": "[3]; reaction time 0 hr", "result": 100, "unit": "%"}, {"measurement": "Doxorubicin production rate", "setting": "[3]; reaction time 1 hr", "result": 49, "unit": "%"}, {"measurement": "Residual ratio of unchanged drug", "setting": "[3]; reaction time 1 hr", "result": 39, "unit": "%"}, {"measurement": "Doxorubicin production rate", "setting": "[3]; reaction time 6.5 hr", "result": 98, "unit": "%"}, {"measurement": "Residual ratio of unchanged drug", "setting": "[3]; reaction time 6.5 hr", "result": 1, "unit": "%"}, {"measurement": "AUC(0-t)", "setting": "[4]", "result": 6240, "unit": "ng·h/mL"}, {"measurement": "Stability in PBS solution (release of doxorubicin)", "setting": "[5]", "result": "did not release doxorubicin in a PBS solution and was chemically stable"}, {"measurement": "Effect of GGT inhibitor on cell proliferation suppressive activity", "setting": "[6]", "result": "completely inhibited the activity"}, {"measurement": "inhibition at 10 µM", "setting": "[7]", "result": 13, "unit": "%"}]}
